From ChEMBL document CHEMBL4402555, “Impact of the structure-activity relationship of AHL analogues on quorum sensing in Gram-negative bacteria” (Bioorg Med Chem, 2020)

Legend:
[1] = target: T1, Transcriptional activator protein LasR (Pseudomonas aeruginosa (strain ATCC 15692 / PAO1 / 1C / PRS 101 / LMG12228)) (UniProt P25084); assay: Antagonist activity at LasR in Pseudomonas aeruginosa PAO-JP2 harboring plasI-LVAgfp assessed as inhibition of GFP expression by measuring reduction in fluorescence intensity at 100 uM incubated for 6 hrs in presence of AI1 by fluorescence based competitive assay relative to control
T1 sequence (whole entry): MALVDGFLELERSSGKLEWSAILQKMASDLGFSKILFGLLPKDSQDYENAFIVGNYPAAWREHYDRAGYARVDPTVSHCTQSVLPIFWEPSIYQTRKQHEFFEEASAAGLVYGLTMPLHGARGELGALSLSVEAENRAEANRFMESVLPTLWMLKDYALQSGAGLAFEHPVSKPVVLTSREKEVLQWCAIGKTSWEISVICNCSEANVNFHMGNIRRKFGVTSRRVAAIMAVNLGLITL

[2] = test system: Chromobacterium violaceum; assay: Inhibition of CviI/CviR in Chromobacterium violaceum ATCC 31532 assessed as reduction in violacein production at 40 uM incubated for 24 hrs relative to control
[3] = Inhibition of CviI/CviR in Chromobacterium violaceum ATCC 31532 assessed as reduction in violacein production incubated for 24 hrs
[4] = test system: Pseudomonas aeruginosa PAO1; assay: Inhibition of LasI/LasR in Pseudomonas aeruginosa PAO1 assessed as reduction in swarming motility at 400 uM incubated for 18 hrs relative to control
[5] = test system: Pseudomonas aeruginosa PAO1; assay: Inhibition of LasI/LasR in Pseudomonas aeruginosa PAO1 assessed as reduction in protein-mediated transition from microcolonies to mature biofilm at 400 uM incubated for 22 hrs by crystal violet staining assay relative to control
Pseudomonas aeruginosa [6] = assay: Inhibition of LasI/LasR in Pseudomonas aeruginosa ATCC 9027 assessed as reduction in protein-mediated transition from microcolonies to mature biofilm at 400 uM incubated for 22 hrs by crystal violet staining assay relative to control
Pseudomonas aeruginosa [7] = assay: Inhibition of LasI/LasR in Pseudomonas aeruginosa ATCC 15422 assessed as reduction in protein-mediated transition from microcolonies to mature biofilm at 400 uM incubated for 22 hrs by crystal violet staining assay relative to control
[8] = target: T2, Regulatory protein SdiA (Escherichia coli (strain K12)) (UniProt P07026); assay: Inhibition of sdiA in Escherichia coli K-12 assessed as reduction in protein-mediated transition from microcolonies to mature biofilm at 400 uM incubated for 22 hrs by crystal violet staining assay relative to control
T2 sequence (whole entry): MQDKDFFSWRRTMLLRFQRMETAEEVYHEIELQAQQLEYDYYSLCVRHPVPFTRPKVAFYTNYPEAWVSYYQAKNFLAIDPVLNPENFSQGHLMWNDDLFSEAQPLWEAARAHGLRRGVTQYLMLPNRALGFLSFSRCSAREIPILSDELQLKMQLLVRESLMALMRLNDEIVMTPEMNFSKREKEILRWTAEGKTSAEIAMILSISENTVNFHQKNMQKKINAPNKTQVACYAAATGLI

HL = assay: Cytotoxicty against human HL cells at 100 uM after 24 hrs by CellTiter Glo assay relative to control; assay type: cell-based
RAW264.7 = assay: Cytotoxicty against mouse RAW264.7 cells at 100 uM after 24 hrs by CellTiter Glo assay relative to control; assay type: cell-based; settings: raw264.7, 24 h
[9] = target: T3, Transcriptional activator protein LuxR (Aliivibrio fischeri, UniProt P12746); assay: Antagonist activity at Aliivibrio fischeri LuxR by luminescence method
T3 sequence (P12746 whole entry): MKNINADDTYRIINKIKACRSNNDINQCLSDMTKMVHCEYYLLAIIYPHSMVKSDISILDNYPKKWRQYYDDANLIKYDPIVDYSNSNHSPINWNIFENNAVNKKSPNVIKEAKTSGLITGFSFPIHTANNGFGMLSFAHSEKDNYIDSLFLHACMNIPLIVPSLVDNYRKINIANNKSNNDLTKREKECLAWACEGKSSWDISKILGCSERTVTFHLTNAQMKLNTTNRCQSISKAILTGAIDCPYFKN

[10] = target: T4, Transcriptional activator protein LasR (Pseudomonas aeruginosa (strain ATCC 15692 / PAO1 / 1C / PRS 101 / LMG12228), UniProt P25084); assay: Inhibition of LasR in Pseudomonas aeruginosa PAO-JP2 harboring plasI-LVAgfp incubated for 6 hrs by fluorescence method
T4 sequence (P25084 whole entry): T1 sequence (whole entry)

[11] = Inhibition of LasR in Escherichia coli JLD271 harboring pSC11/pJN105L using CPRG as substrate incubated for 4 hrs by Miller assay method
[12] = target: T4, Transcriptional activator protein LasR; assay: Antagonist activity at Pseudomonas aeruginosa LasR transfected with lasB-GFP by […] method
[13] = target: T3, Transcriptional activator protein LuxR; assay: Antagonist activity at Aliivibrio fischeri ES114 LuxR after 4 to 8 hrs by luminescence method
[14] = target: T3, Transcriptional activator protein LuxR; assay: Agonist activity at Aliivibrio fischeri LuxR by luminescence method
[15] = Activation of LasR in Escherichia coli JLD271 harboring pSC11/pJN105L using CPRG as substrate incubated for 4 hrs by Miller assay method
[16] = target: T3, Transcriptional activator protein LuxR; assay: Inhibition of Aliivibrio fischeri LuxR by luminescence method
[17] = target: T4, Transcriptional activator protein LasR; assay: Activation of LasR in Pseudomonas aeruginosa PAO-JP2 harboring plasI-LVAgfp incubated for 6 hrs by fluorescence method
[18] = Inhibition of quorum sensing system in Pseudomonas aeruginosa
[19] = target: T1, Transcriptional activator protein LasR (Pseudomonas aeruginosa (strain ATCC 15692 / PAO1 / 1C / PRS 101 / LMG12228)); assay: Antagonist activity at LasR in Pseudomonas aeruginosa PAO1 assessed as inhibition of pyocyanin production at 50 uM incubated for 13 hrs relative to control
[20] = target: T4, Transcriptional activator protein LasR; assay: Antagonist activity at LasR in Pseudomonas aeruginosa harboring plasI-LVAgfp assessed as inhibition of GFP production incubated for 6 hrs by fluorescence method
[21] = Antagonist activity at LasR in Escherichia coli JLD271 harboring pSC11/ pJN105L using CPRG as substrate incubated for 4 hrs by Miller assay
[22] = Inhibition of quorum sensing system in Pseudomonas aeruginosa transfected with lasB-lacZ in presence of PA1

CCCCCCCCCC(=O)CC(=O)CCN[C@H]1CCC[C@@H]1O
inhibition [1]: 70%

CCC(=O)Oc1c(-c2ccccc2Cl)oc2ccccc2c1=O
inhibition [2]: 99.7%
IC50 [3]: 9.6 µM
inhibition [4]: 72.1%
inhibition [5]: 42.3%
inhibition (Pseudomonas aeruginosa [6]): 27.2%
inhibition (Pseudomonas aeruginosa [7]): 11.2%
inhibition [8]: 51.3%
Activity (HL): 11.2%
Activity (RAW264.7): 97.7%

O=C(CC(=O)NC1CCOC1=O)Cc1ccc(F)cc1 (stereo not given)
IC50 [9]: 4 µM

O=C(CCCc1ccccc1)N[C@H]1CCOC1=O
IC50 [10]: 175 µM
IC50 [11]: 1 µM

CCCCCCC[S+]([O-])CC(=O)NC1CCOC1=O (stereo not given)
IC50 [12]: 50 µM

O=C(Cc1ccc(-c2ccccc2)cc1)N[C@H]1CCOC1=O
IC50 [13]: 1.1 µM

O=C(Nc1ccccc1NC(=O)c1cccc(Cl)c1)c1cccc(Cl)c1
IC50 [11]: 70 µM

O=C(CC(=O)N[C@H]1CCOC1=O)CC1CCCC1
EC50 [14]: 0.25 µM

O=C(Cc1ccc(I)cc1)N[C@H]1CCOC1=O
IC50 [13]: 0.9 µM

O=C(Cc1ccccc1)CS(=O)(=O)NC1CCOC1=O (stereo not given)
IC50 [9]: 40 µM

COc1ccc(CC(=O)CC(=O)NC2CCOC2=O)cc1 (stereo not given)
IC50 [9]: 3 µM

O=C(CCc1ccc(Br)cc1)N[C@H]1CCOC1=O
IC50 [11]: 0.16 µM
EC50 [15]: 8.4 µM

CCC(=O)CC(=O)Nc1cccc(OC)c1
IC50 [10]: > 200 µM
IC50 [11]: 4.7 µM
EC50 [15]: > 100 µM

CCCCCCC(=O)N[C@H]1CCOC1=O
IC50 [13]: 1.4 µM
IC50 [10]: > 100 µM
IC50 [11]: 2.8 µM

CCCCCCCCCC(=O)N[C@H]1CCSC1=O
IC50 [16]: 0.13 µM

CCCCCCCSCC(=O)N[C@H]1CCOC1=O
IC50 [12]: 6 µM

O=C(Cc1ccc([N+](=O)[O-])cc1)N[C@H]1CCOC1=O
IC50 [13]: 1 µM

O=C(NCc1cc(Br)cc(Br)c1OC(=O)c1ccccc1[N+](=O)[O-])c1ccccc1Cl
EC50 [15]: 0.0078 µM

CCCCCCCCS(=O)(=O)NC1CCOC1=O (stereo not given)
IC50 [9]: 10 µM

O=C(CC(=O)NC1CCOC1=O)Cc1ccccc1Cl (stereo not given)
IC50 [9]: 6 µM

O=C(Cc1ccc(C(F)(F)F)cc1)N[C@H]1CCOC1=O
IC50 [13]: 0.6 µM
IC50 [10]: 3 µM
EC50 [17]: 140 µM
EC50 [15]: 0.65 µM

CCCCCC(=O)CC(=O)N[C@H]1CCOC1=O
IC50 [11]: 0.078 µM
EC50 [15]: 4.5 µM

CCCCCCCCC(=O)CC(=O)Nc1ccccc1
IC50 [18]: 5.5 µM

O=C(COCc1ccccc1)NC1CCOC1=O (stereo not given)
IC50 [9]: 2 to 3 µM

CCCCCCCCCC(=O)CC(=O)CCNC1CCCCC1=O (stereo not given)
inhibition [1]: 35%

O=C1OCCC1NS(=O)(=O)CCCc1ccccc1 (stereo not given)
IC50 [9]: 20 µM

O=C(CC(=O)NC1CCOC1=O)Cc1ccc(C(F)(F)F)cc1 (stereo not given)
IC50 [9]: 10 µM

CCCCCCCCC(=O)CC(=O)Nc1cccc(OC)c1
inhibition [19]: 74%

O=C(CSCc1ccccc1)NC1CCOC1=O (stereo not given)
IC50 [9]: 2 to 3 µM

O=C(CC(=O)NC1CCOC1=O)Cc1ccc(Br)cc1 (stereo not given)
IC50 [9]: 2 µM

CCCCCCCCCSCC(=O)N[C@H]1CCOC1=O
IC50 [12]: 50 µM

CCCCS(=O)(=O)NC1CCOC1=O (stereo not given)
IC50 [9]: 12 µM

CCCCCCCCCNC(=O)CC(=O)Cc1ccccc1
IC50 [20]: 15 µM
IC50 [21]: 2 µM

Cc1ccc(CC(=O)CC(=O)NC2CCOC2=O)cc1 (stereo not given)
IC50 [9]: 4 µM

O=C(Cc1ccc(Cl)cc1)N[C@H]1CCOC1=O
IC50 [13]: 4.1 µM

O=C(CC(=O)NC1CCOC1=O)Cc1ccc(Cl)cc1 (stereo not given)
IC50 [9]: 3 µM

CCC(=O)CC(=O)Nc1ccccc1
IC50 [10]: 9.7 µM
EC50 [15]: 0.92 µM

O=C(CC(=O)N[C@H]1CCOC1=O)Cc1ccccc1
IC50 [11]: 2.8 µM

O=C(CCCC1CCCCC1)NC1CCOC1=O (stereo not given)
EC50 [14]: > 6 µM

CCCC(=O)CS(=O)(=O)NC1CCOC1=O (stereo not given)
IC50 [9]: 40 µM

O=C(CC(=O)NC1CCOC1=O)Cc1ccccc1 (stereo not given)
IC50 [9]: 2 µM

O=C1OCCC1NS(=O)(=O)CCc1ccccc1 (stereo not given)
IC50 [9]: 3 µM

N#CSCC(=O)CC(=O)N[C@H]1CCOC1=O
EC50 [17]: 2.6 µM
EC50 [15]: 0.017 µM

CCCCCCCCCS(=O)(=O)NC1CCOC1=O (stereo not given)
IC50 [9]: 40 µM

O=C(CC(=O)NC1CCOC1=O)Cc1cccc(Cl)c1 (stereo not given)
IC50 [9]: 4 µM

CC(C)CC(=O)CC(=O)N[C@H]1CCOC1=O
EC50 [14]: 0.5 µM

O=C(COc1cccc(Br)c1)N[C@H]1CCSC1=O
EC50 [17]: 4.2 µM
EC50 [15]: 0.013 µM

CCCCCS(=O)(=O)NC1CCOC1=O (stereo not given)
IC50 [9]: 2 µM

CCC(=O)CC(=O)NC1CCCCC1=O (stereo not given)
IC50 [10]: > 100 µM
EC50 [17]: > 200 µM
EC50 [15]: 0.24 µM

CCCCCCCCCNC(=O)CC(=O)c1ccccc1
IC50 [11]: 2.3 µM

O=C(CCCc1ccccc1)NC1CCOC1=O (stereo not given)
IC50 [9]: 2 to 3 µM

CCCCCCCS(=O)(=O)NC1CCOC1=O (stereo not given)
IC50 [9]: 9 µM

CCCCCCS(=O)(=O)NC1CCOC1=O (stereo not given)
IC50 [9]: 6.5 µM

Cc1ccc(SCC(=O)N[C@H]2CCOC2=O)cc1
IC50 [12]: 50 µM

O=C(CCCOc1ccc(Cl)cc1)N[C@H]1CCOC1=O
IC50 [11]: 0.49 µM
EC50 [15]: 33 µM

O=C(CC(=O)N[C@H]1CCOC1=O)CC1CCCCC1
EC50 [14]: 1.1 µM

CCCCCCCCCC(=O)Oc1c(-c2ccc(OC)cc2)oc2ccccc2c1=O
inhibition [2]: 83.5%
IC50 [3]: 13.9 µM
inhibition [4]: 69.8%
inhibition [5]: 11.6%
inhibition (Pseudomonas aeruginosa [6]): 22.5%
inhibition (Pseudomonas aeruginosa [7]): 28.1%
inhibition [8]: 14.3%

O=C(Cc1ccc(Br)cc1)N[C@H]1CCOC1=O
IC50 [13]: 3.7 µM
IC50 [11]: 3.5 µM

O=C1OCCC1NS(=O)(=O)Cc1ccccc1 (stereo not given)
IC50 [9]: 40 µM

CCCCCCCCCC(=O)NC1CCCC1 [N-CYCLOPENTYLDECANAMIDE]
IC50 [10]: > 50 µM
IC50 [22]: 80 µM

CCC(=O)CC(=O)Nc1ccccc1O
EC50 [17]: 17 µM
EC50 [15]: 0.096 µM
